Assay [1] in a line: Fluorescence response selectivity against other species. As to conditions: OH, t-BuO, 1O2, NO, GSH, Cys, Hcy, SO2, NAC, H2S, halides, amino acids, NaHS, NaHSO3, EtSH, PhSH, n-Butylamine, aniline. Here is the method:
Regarding a method for detecting ONOO^− and Na2S2 in cells, unless otherwise specified, a probe molecule is dissolved at room temperature for analytical detection, where a volume ratio of an organic phase to an aqueous phase is 5:5. The organic phase is acetonitrile (CH3CN), and the aqueous phase is formed by PBS (pH=7.4) and an aqueous solution of the analyte.
The multi-signal fluorescent probe for reactive oxygen was dissolved in a solution, in which a volume ratio of […] to the aqueous phase was 5:5. The multi-signal fluorescent probe emitted 492 nm green light under 380 nm excitation wavelength after reacted with ONOO^−, and emitted 548 nm yellow light under 410 nm excitation wavelength after reacted with Na2S2. Accordingly, a specific analyte can be detected by the specific excitation and fluorescence emission signal. The ONOO^− and Na2S2 can be distinguished by using different excitation wavelengths and fluorescence emission signals. […] The LOD for ONOO^− is 42.12 nM, and the LOD for Na2S2 is 38.45 nM. In summary, the multi-signal fluorescent probe can realize the high-sensitivity discrimination and detection of ONOO^− and Na2S2.

Assay [2] in a line: Fluorescence detection of Na2S2 by the probe (limit of detection). As to conditions: organic phase:aqueous phase (PBS) 5:5, room temperature. As for the experimental part: (§1) The multi-signal fluorescent probe was dissolved with dimethyl sulfoxide (DMSO) to obtain a 1 mM probe solution. A 1 mM ONOO^− aqueous solution and a 1 mM Na2S2 aqueous solution were prepared.
(§2) 20 μL of the 1 mM probe solution, 980 μL of analytically pure CH3CN, the required amount of the 1 mM ONOO^− or Na2S2 aqueous solution and the required amount of phosphate buffered saline (PBS) were added into a 2 mL sample tube. A volume ratio of an organic phase to an aqueous phase was kept at 5:5 for all tests (a total volume of each test sample was 2 mL).
L of the 1 mM probe solution, 980 μL of analytically pure CH3CN, 20 μL of the 1 mM ONOO^− aqueous solution and 980 μL of PBS were added into a 2 mL sample tube. […] Then, the fluorescence emission intensity of the reaction mixture could be measured under the 350 nm excitation wavelength. […] Fluorescence spectra of the multi-signal fluorescent probe in the detection of peroxynitrite and sodium disulfide were shown in FIG. 2. […]
The multi-signal fluorescent probe for reactive oxygen was dissolved in a solution, in which a volume ratio of DMSO to the aqueous phase was 5:5. […] Accordingly, a specific analyte can be detected by the specific excitation and fluorescence emission signal. The ONOO^− and Na2S2 can be distinguished by using different excitation wavelengths and fluorescence emission signals. […]

A short description of assay [3]: Fluorescence detection of ONOO^− by the probe (limit of detection). The conditions noted are these: organic phase:aqueous phase (PBS) 5:5, room temperature, 15 min. As for the experimental part: as §1, §2
For example, when it was required to explore the fluorescence intensity of the multi-signal fluorescent probe after reacted with […] ONOO^−, the experiment was formulated as follows.
L of the 1 mM probe solution, 980 μL of analytically pure CH3CN, 20 μL of the 1 mM ONOO^− aqueous solution and 980 μL of PBS were added into a 2 mL sample tube. The reaction mixture was mixed evenly under shaking at room temperature for 15 min. Then, the fluorescence emission intensity of the reaction mixture could be measured under the 350 nm excitation wavelength. Other steps were performed as above. The limit of detection (LOD) for ONOO^− was 42.12 nM, and the LOD for Na2S2 was 38.45 nM. Fluorescence spectra of the multi-signal fluorescent probe in the detection of peroxynitrite and sodium disulfide were shown in FIG. 2. […]

For the compound `CCN1c2ccccc2Sc2cc3c(Cl)cc(=O)oc3cc21` [multi-signal fluorescent probe, 4-chloro-11-ethylpyrano[2,3-b]phenothiazin-2(11H)-one], the “fluorescence response to interfering species” value in assay [1] is listed as “no significant response”. Also, the “LOD for Na2S2” value in assay [2] came out at 38.45 nM. For the same compound, the “limit of detection (LOD) for ONOO^−” value in assay [3] amounted to 42.12 nM.

Values taken from patent publication US11857644B2, “Multi-signal fluorescent probe for early diagnosis of tumors, and preparation and use thereof” (Hunan Cancer Hospital, priority 2022, dated 2024).
